Test results: US20230002327A1, “SMALL-MOLECULE REGULATOR OF TLR8” (TSINGHUA UNIVERSITY, priority 2019, published 2023)

What was measured:
[1] = tested on: TLR1/2, TLR2/6, TLR3, TLR4 and TLR5 signaling pathways; test: ELISA of TNF-α in TLR1/2, TLR2/6, TLR3, TLR4 or TLR5 signaling pathways in human PBMC; format: cell-based; conditions: human peripheral blood mononuclear cells (FIG. 4)
[2] = tested on: peripheral blood mononuclear cells of patients suffering from rheumatoid arthritis; test: TNF-α in PBMC of rheumatoid arthritis patients; format: cell-based, human; conditions: PBMC derived from rheumatoid arthritis patients (FIG. 9)
Experimental: Approximately 8 mL of blood was collected from untreated rheumatoid arthritis patients.
Peripheral blood mononuclear cells (PBMCs) were isolated from the whole blood derived from 6 rheumatoid arthritis patients using the lymphocyte separation medium, and the cells were seeded in a 96-well round-bottom plate at a density of 1×10^6 cells/mL immediately after the isolation (cultured in RPMI 1640 (0.25 mL/well)).
Afterwards, cells were treated with 0, 10, 20, 40 and 80 μM Compound 24, Compound 10 was used as a negative control, and cells were placed in a cell incubator (37° C., 5% CO2) for incubation.
After 24 hours, the resultant was centrifuged at 4,000 rpm/minute for 10 minutes, and then the supernatant was collected, frozen to −80° C. and used for the determination of TNF-α. Quantification was conducted using a human TNF ELISA Kit.

[3] = biological target: T1, TLR7 (Homo sapiens, UniProt Q9NYK1); test: Inhibition of R848-induced signaling in HEK-Blue hTLR7 cell line (Quanti-Blue); format: cell-based
T1 construct: host or cells: HEK-Blue hTLR7 (HEK293-derived SEAP reporter cells)
T1 sequence (Q9NYK1 27-1049): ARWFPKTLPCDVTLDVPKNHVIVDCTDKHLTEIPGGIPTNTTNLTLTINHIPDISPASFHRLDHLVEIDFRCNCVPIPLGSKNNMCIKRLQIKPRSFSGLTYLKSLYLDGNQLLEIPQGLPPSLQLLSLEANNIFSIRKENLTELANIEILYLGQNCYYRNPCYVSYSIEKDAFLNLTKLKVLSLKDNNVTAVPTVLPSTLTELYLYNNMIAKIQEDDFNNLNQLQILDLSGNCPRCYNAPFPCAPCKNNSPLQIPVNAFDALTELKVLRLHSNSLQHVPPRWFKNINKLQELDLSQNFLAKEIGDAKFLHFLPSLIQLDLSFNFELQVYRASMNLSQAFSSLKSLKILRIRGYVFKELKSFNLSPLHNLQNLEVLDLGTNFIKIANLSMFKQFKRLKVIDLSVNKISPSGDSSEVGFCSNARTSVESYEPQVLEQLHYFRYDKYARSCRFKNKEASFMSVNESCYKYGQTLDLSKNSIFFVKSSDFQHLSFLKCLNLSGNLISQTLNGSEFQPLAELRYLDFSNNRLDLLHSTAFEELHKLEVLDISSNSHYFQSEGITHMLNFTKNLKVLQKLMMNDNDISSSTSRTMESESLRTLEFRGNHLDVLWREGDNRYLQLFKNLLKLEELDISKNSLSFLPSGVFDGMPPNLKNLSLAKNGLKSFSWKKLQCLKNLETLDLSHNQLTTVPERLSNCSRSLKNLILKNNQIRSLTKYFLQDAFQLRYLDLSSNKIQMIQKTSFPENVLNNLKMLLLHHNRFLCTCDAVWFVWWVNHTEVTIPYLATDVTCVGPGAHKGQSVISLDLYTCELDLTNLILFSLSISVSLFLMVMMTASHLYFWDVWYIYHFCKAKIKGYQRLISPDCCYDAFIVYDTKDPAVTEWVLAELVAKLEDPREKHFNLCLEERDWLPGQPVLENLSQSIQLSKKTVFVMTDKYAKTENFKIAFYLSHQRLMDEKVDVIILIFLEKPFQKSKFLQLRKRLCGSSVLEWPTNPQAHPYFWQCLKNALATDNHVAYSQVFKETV
Experimental: HEK Blue hTLR8 cells or HEK Blue hTLR7 cells were cultured in DMEM medium supplemented with 10% fetal bovine serum, penicillin (100 U/mL) and streptomycin ([…]). Thereafter, cells were seeded in 96-well plate (45,000 cells per well), and were cultured for 24 hours in a humidified incubator (37° C., 5% CO2).
After 24 hours, the supernatant and suspending cells were aspirated and replaced with fresh serum-free DMEM. Cells were treated with 1 μg/mL of R848 (agonist of TLR7/8) or 5 μg/mL of ssRNA40/LyoVec or 5 μg/mL of ORN06/LyoVec (InvivoGen) and compounds with specified concentrations, and were placed in a humidified incubator (37° C., 5% CO2) for co-culture.
After 24 hours, 50 μL of the medium was aspirated from each well and then added to a new 96-well plate, followed by the addition of 50 μL of Quanti-Blue in each well and the incubation at 37° C. in darkness. Changes in color would occur in the […] within 60 minutes, and the absorbance was measured at 620 nm by using the multi-mode plate reader Vrioskan Flash. Inhibition rate (%)=[R848 (OD620)−Compound (OD620)]/[R848 (OD620)−Control (OD620)]×100%. Among these, the control group was only added with the same amount of cells. Finally, the software Prism 6.0 was utilized to plot a graph and calculate IC50 values. Or, the activity of the cells treated with ligand and DMSO was defined as 100% activity, and the activity of the untreated cells was defined as 0% activity.

[4] = tested on: hTLR1/2, TLR2/6, TLR3, TLR4, TLR5, TLR7, TLR9; test: Specificity test in HEK-Blue TLR cell lines: other TLRs; format: cell-based, human; conditions: at a concentration of 100 μM (FIG. 11)
Experimental: The selectivity of compounds for receptors in TLR family was tested in HEK-Blue cells overexpressing various TLRX (x=1 to 9) respectively. The steps of this test method were the same as those mentioned above in “Activity Test of Compounds”, except that the ligands corresponding to different TLRs were used to activate the downstream signaling in the corresponding cells. Among these, ploy (I:C) (20 μg/mL), LPS (40 ng/mL), Pam3CSK4 (100 ng/mL), Pam2CSK4 (100 ng/mL), flagellin (200 ng/mL), R848 (1 μg/mL) and ODN2006 (0.5 μM) were used to selectively activate HEK-Blue hTLR3-, hTLR4-, hTLR1/2-, hTLR2/6-, hTLR5-, hTLR7- and hTLR9-overexpressing cells, respectively.

| TLR7 (normalized inhibitory effect on R848-induced signaling) [3] | Compound | inhibitory effect on TNF-α in TLR1/2, TLR2/6, TLR3, TLR4 and TLR5 signaling pathways [1] | inhibitory effect on inflammatory factor TNF-α [2] | influence on other TLR signaling pathways [4] |
| --- | --- | --- | --- | --- |
|  | CSc1nnc(CCCO)n1-c1cc(C)c(C)c(C)c1 [Compound 24, 3-(5-(methylthio)-4-(3,4,5-trimethylphenyl)-4H-1,2,4-triazole-3-yl)propan-1-ol] | no inhibitory effect | significant inhibitory effect |  |
| 1.0 ± 0.2 | CCOCc1nc(I)c(-c2ccccc2)n1CC(C)(C)O [Compound 53, 1-[2-(ethoxymethyl)-4-iodo-5-phenyl-1H-imidazole-1-yl]-2-methylpropan-2-ol] |  |  | no influence |
